Data on 2 compounds can be found in US8969861B2, “Method of manufacturing organic electroluminescence display device” (Canon Kabushiki Kaisha, priority 2012, dated 2015).

Molecules are shown by their SMILES.

Format in all cases: physicochemical
A short description of data set [1]: Etching (dissolution) rate of deposited layers in IPA/water mixed solvent. Conditions: IPA 60 wt %; for etching rate of the layer: identical etching conditions. The text has this: In the present invention, a larger etching rate means a higher dissolution rate. In addition, a larger etching rate means a higher solubility of a layer having a material of interest in the solvent (polar solvent). FIG. 3 is a graph showing thickness changes in the compound 1 and the compound A2 over an etching time. […] On the other hand, the thickness of a layer (layer B) formed of the compound A2 as a heterocyclic compound reduces over time. When the etching rates of the respective layers are calculated with their etching conditions made identical to each other, the etching rate of the layer A is 0.008 nm/sec but the etching rate of the layer B is 0.87 nm/sec, that is, a ratio of the latter to the former is about 100.

Data set [2] is described as follows: Solubility in IPA/water mixed solvent (FIG. 4). Conditions: IPA concentration of 80 wt %. The text has this: The solubility of a compound as a constituent material for each layer in the IPA/water mixed solvent varies depending on the weight ratio of IPA in the mixed solvent. FIG. 4 is a graph showing the solubilities of the compound 1 (fused polycyclic hydrocarbon compound) and the compound A2 (heterocyclic compound) in the IPA/water mixed solvent (polar solvent). Here, in the graph of FIG. 4, the axis of abscissa indicates the weight percent concentration of IPA in the IPA/water mixed solvent, and the axis of ordinate indicates the amount of the fused polycyclic hydrocarbon compound or heterocyclic compound to dissolve in 1 g of the solvent.

Data set [3] in a line: Etching of sacrificial layer by spin washing method (FIG. 6). Conditions: 60-wt % aqueous solution of IPA; thickness by spectroscopic ellipsometer. From the text: The spin washing method involves first dropping a polar solvent 81 onto the sacrificial layer 30 (FIG. 5B), holding the resultant for a predetermined time period (FIG. 5C), then rotating the substrate 10 to splash the polar solvent 81, and drying the substrate 10 by means of the rotation (FIG. 5D). The spin washing method in which the process illustrated in FIGS. 5A to 5D is defined as one cycle is typically repeated a plurality of times. It is to be noted that the polar solvents 81 to be used in the cycle to be performed a plurality of times may be the same every time, or mixed solvents having different compositional ratios may be used in part of the times or every time.
FIG. 6 is a graph showing a relationship between the total time of etching by the spin washing method and the thickness of the sacrificial layer formed of the compound A2. It is to be noted that in the graph of FIG. 6, the compound A2 is used as a constituent material for the sacrificial layer 30 and a 60-wt % aqueous solution of IPA is used as a polar solvent. […] The thickness of the sacrificial layer was measured with a spectroscopic ellipsometer (HORIBA). […] Although the graph shown in FIG. 6 is merely a specific example, the number of repetition of the process based on the spin washing method can be decided by utilizing the quantitative tendency of the sacrificial layer 30 to reduce shown in FIG. 6.

A short description of data set [4]: Etching of sacrificial layer by dipping method (FIG. 9). Conditions: 60-wt % aqueous solution of IPA; thickness by spectroscopic ellipsometer. The text has this:
The dipping method is a method involving loading the substrate 10 in a container storing the polar solvent, dipping the substrate 10 in the polar solvent for a certain time period, and then taking the substrate 10 out of the container. Upon dipping of the substrate 10 in the polar solvent, (at least part of) the sacrificial layer 30 is eluted. At this time, when the concentration of the water-soluble polymer material constituting the intermediate layer 40, which can be dissolved together with the sacrificial layer 30, in the polar solvent is low, the polar solvent can be reused as the polar solvent to be used in first dipping.
The dipping method is performed by, for example, a method to be described below. […]
FIG. 9 is a graph showing a relationship between the total time of etching by the dipping method and the thickness of the sacrificial layer formed of the compound A2. […] The thickness of the sacrificial layer was measured with a spectroscopic ellipsometer (HORIBA). […] Although the graph shown in FIG. 9 is merely a specific example, the number of repetition of the process based on the dipping method can be decided by utilizing the quantitative tendency of the sacrificial layer 30 to reduce shown in FIG. 9. […]

For the compound `CC1(C)c2cc(-c3ccc4ccc5cccc6ccc3c4c56)ccc2-c2ccc(-c3ccc4ccc5cccc6ccc3c4c56)cc21` [compound 1], in data set [1], the “etching rate of the layer” value worked out at 0.008 nm/s. Besides, the “amount dissolving in 1 g of the IPA/water mixed solvent” value in data set [2] was 5 µg.
As to `CC1(C)c2ccccc2-c2ccc(-c3ccc4ccc5ccc(-c6ccc7c(c6)C(C)(C)c6ccccc6-7)nc5c4n3)cc21` [compound A2], in data set [1], the “ratio of etching rate of layer B (compound A2) to layer A (compound 1)” value is listed as “about 100” and the “etching rate of the layer” value was 0.87 nm/s. Further, the “amount dissolving in 1 g of the IPA/water mixed solvent” value in data set [2] amounted to 73 µg. For the same compound, in data set [3], the “rate at which the sacrificial layer is etched by one spin washing” value is “about 6.7 nm”. In addition, the “rate at which the sacrificial layer was etched by the dipping method” value in data set [4] is 3.7 nm/time.
